According to article PMC4381587, “A novel PI3K inhibitor PIK-C98 displays potent preclinical activity against multiple myeloma” (Oncotarget, 2014):

Columns and labels:
PDK1 = tested on: T1, PDK1; assay: Kinase activity in cell-free assay, PDK1; type: biochemical; conditions: enzymatic system, even at a concentration of 300 μM
T1 construct: purchased Reaction Biology Corp., Malvern, PA, USA
Description: To confirm this hypothesis, the inhibitory potency of C98 on PI3K enzymes was measured in a cell-free system with individual recombinant human PI3K isoforms. […] To further evaluate its specificity on PI3K, the effects of C98 on other associated kinases AKT, PDK1, and mTOR were also measured in the enzymatic systems. […] Therefore, C98 preferred to inhibit PI3K activity.
Kinase activity in the presence of C98 was performed by using the HotSpot technology (Reaction Biology Corp., Malvern, PA, USA) as described previously.

PTEN = assay: Immunoblotting of PTEN protein level in MM cells; type: cell-based; conditions: MM cells after C98 treatment
Description: To find out whether C98 also interfered with other signaling pathways, we first checked the receptor tyrosine kinase IGF-1R, which mediates PI3K activation in MM cells in the presence of IGF-1. Starved MM cells LP1 and JJN3 were incubated with C98 followed by IGF-1 stimulation. […] Moreover, we also measured the expression of PTEN, a negative regulator of PI3K signaling, in MM cells after C98 treatment.
(§1) The immunoblotting assays were performed as described previously. IRDye 680 goat anti-mouse and IRDye 800CW goat anti-rabbit antibodies were from Odyssey (San Ramon, CA, USA).

ERK = assay: Immunoblotting of ERK phosphorylation in OPM2 and JJN3 cells; type: cell-based, human; conditions: OPM2 and JJN3, 24 hr
Description: (§2) (B) LP1 and JJN3 cells were starved overnight, then treated with C98 or S14161 for 2 hr, followed by IGF-1 (100 ng/mL) for 15 min. Cells were then prepared for the analysis of the expression of p-AKT, t-AKT, p-IGF-1R, and IGF-1R by immunoblotting. (C) OPM2 and JJN3 cells were treated with increasing concentrations of C98 for 24 hr before being applied to immunoblotting against p-ERK, t-ERK, p-P38, t-P38, p-Src, t-Src, p-STAT3, or t-STAT3. GAPDH and β-actin were used as loading controls.
(§3) To further clarify the effects of C98 on other signaling pathways associated with PI3K signaling, we evaluated ERK and p38, both of which mediate extracellular signaling similar to PI3K. […] We also checked the phosphorylation status of STAT3, a signal transducer and activator of transcription. […] Therefore, C98 had no effects on these kinases/proteins associated with PI3K signaling.
as §1

p38 = assay: Immunoblotting of p38 phosphorylation in OPM2 and JJN3 cells; type: cell-based, human; conditions: OPM2 and JJN3, 24 hr
Description: as §2, §3, §1

c-Src = assay: Immunoblotting of c-Src phosphorylation in OPM2 and JJN3 cells; type: cell-based, human; conditions: OPM2 and JJN3, 24 hr
Description: as §2, §3, §1

STAT3 = assay: Immunoblotting of STAT3 phosphorylation in OPM2 and JJN3 cells; type: cell-based, human; conditions: OPM2 and JJN3, 24 hr
Description: as §2, §3, §1

[1] = tested on: KMS11, LP1, OCI-My5, OPM2, JJN3, and RPMI-8226; assay: Immunoblotting of PARP and caspase-3 cleavage in MM cell lines; type: cell-based; conditions: all cell lines examined, 20 μM, 24 hr
Description: (§4) To answer whether C98 could induce apoptosis in other MM cells, 5 more MM cells were subject to the study. […] Cell apoptosis induced by C98 was further confirmed by the increased fraction of positive cells stained with Annexin V (Figure 5). To show whether activated PI3K signals can rescue C98 effects on MM cells, both OPM2 and RPMI-8226 cells were treated with IGF-1 alone or together with C98 for 48 hr followed by MTT assay.
Figure 4 C98 activates apoptotic signaling in MM cells (A) JJN3 cells were treated with C98 (0, 2.5, 5, 10, 20 μM) for 24 hr or 10 μM for 0, 3, 6, or 9 hr, followed by immunoblotting for the expression of p-AKT, t-AKT, pro-caspase-3 (Pro-Casp3), and cleaved caspase-3 (Cle-Casp3). (B) KMS11, LP1, OCI-My5, OPM2, JJN3, and RPMI-8226 were treated with C98 (20 μM) for 24 hr, followed by immunoblotting for the expression of PARP, Pro-Casp3, and Cle-Casp3. GAPDH was used as a loading control.
as §1

OPM2 and RPMI-8226 cells = assay: MTT assay with IGF-1 rescue; type: cell-based; conditions: OPM2 and RPMI-8226, IGF-1 alone or together with C98, 48 hr
Description: as §4
Cell viability was assessed with the MTT assay as reported previously. To show apoptosis, MM cells were incubated for 24 hr with increasing concentrations of C98 before being stained with Annexin V-FITC and propidium iodide (BioVision Milpitas, CA). Apoptotic cells were measured on a flow cytometer (FACSCalibur®, Becton Dickinson) as reported as previously. […]
www.impactjournals.com/oncotarget/ Oncotarget, Supplementary Materials 2014
Supplementary Figure S3: IGF-1 rescues C98-decreased MM cell proliferation. OPM2 and RPMI-8226 cells were treated with IGF-1 alone or increased C98 for 48 hr, followed by MTT assay. […]

JJN3 xenograft = assay: JJN3 myeloma xenograft in nude mice; type: in vivo
[2] = Body weight and hematology analysis in xenograft mice; type: in vivo
Description: Totally 50 female […] mice from Shanghai Slac Laboratory Animal Co. Ltd were used for the xenograft models with human MM cell lines OPM2 and JJN3, respectively. When tumors were palpable, the OPM2-xenograft mice were randomly divided into two groups. One group as a control was received the vehicle, and another group was orally administrated C98 (80 mg/kg) once a day for continuous 16 days. The JJN3 xenografted mice were randomly divided into three groups which were orally administrated vehicle or C98 (40 or 80 mg/kg), respectively. Body weight and tumor volumes were measured every other day as described previously. At the end of this experiment, tumors were collected for further studies. The concentrations of C98 in tumor tissues were also determined by LC-MS/MS as described above. All experiments involved in mice were reviewed and approved by the Review Board of Animal Care and Use of Soochow University.
At the end of the experiment of the in vivo studies, whole blood samples were collected from the eyes and were immediately subject to complete blood analysis as described previously. […]
www.impactjournals.com/oncotarget/ Oncotarget, Supplementary Materials 2014 […]
OPM2 (A) and JJN3 (B) were injected (s.c.) […]
into nude mice. When tumors were palpable, mice were orally administrated C98 at dosage as indicated for continued 16 days. Mice bodyweight was monitored every other day. […]

[3] = JJN3 xenograft, 40 mg/kg oral daily, 16 days
[4] = JJN3 xenograft, 80 mg/kg oral daily, 16 days

N#C/C(=C\C=C\c1ccc(-c2cc(Cl)ccc2Cl)o1)C(N)=S [C98]
suppression of PDK1 activity (PDK1): failed to suppress | PTEN protein level (PTEN): had no effects on the PTEN protein level | phosphorylation level of ERK (ERK): failed to decrease | phosphorylation level of p38 (p38): failed to decrease | phosphorylation of c-Src (c-Src): failed to inhibit | phosphorylated STAT3 (STAT3): did not decrease | cleavage of caspase-3 and PARP (apoptosis) [1]: both caspase-3 and PARP were cleaved | MM cell proliferation (MTT), rescue by IGF-1 (OPM2 and RPMI-8226 cells): IGF-1 could partly abolish C98-decreased MM cell proliferation | AKT phosphorylation in tumors (JJN3 xenograft; JJN3 tumors, both 40 and 80 mg/kg doses, immunoblotting): decreased | decrease of tumor growth (JJN3 xenograft; [3]): 48% | tumor volume (JJN3 xenograft; [3]): 1293.1 ± 289.7 mm^3 | decreased tumor growth to % (JJN3 xenograft; [4]): 76.5% | tumor volume (JJN3 xenograft; [4]): 581.2 ± 73.2 mm^3 | cleavage of PARP in tumors (JJN3 xenograft; MM tumors excised from C98-treated mice, especially high dose group): cleavage of PARP was found | body weight of mice ([2]; OPM2 and JJN3 xenograft models, oral 40 or 80 mg/kg, 16 days): had no effects on body weight | blood cell count, platelet count, hemoglobin measurement ([2]; mice treated with C98, end of the in vivo studies (data not shown)): no significant changes
